Experimental data taken from patent US11716992B2, “5A5B6C tricyclic spirolactone derivative, preparation method therefor and use thereof” (NANKAI UNIVERSITY, priority 2017, dated 2023).
Where “and” joins values, the source holds several entries; their conditions need not be identical. Equal values may be shown once. Read-outs that look alike come from different tables or passages of the source.

Experiments:
[1] = system: Mythimna separate (Walker); test: Insecticidal activity against Mythimna separate (Walker); type: in vivo; conditions: 100 μg/mL; for pest or weed control at 100 µg/mL: Mythimna, read-out: insecticidal activity, Mythimna separate (Walker)
[2] = system: Helicoverpa armigera (Hübner); test: Insecticidal activity against Helicoverpa armigera (Hübner); type: in vivo; conditions: 100 μg/mL; for pest or weed control at 100 µg/mL: Helicoverpa armigera, read-out: insecticidal activity, Helicoverpa armigera (Hübner)
[3] = system: Ostrinia furnacalis; test: Insecticidal activity against Ostrinia furnacalis; type: in vivo; conditions: 100 μg/mL; for pest or weed control at 100 µg/mL: Ostrinia furnacalis, read-out: insecticidal activity, Ostrinia furnacalis
[4] = system: Caenorhabditis elegans; test: Insecticidal activity against Caenorhabditis elegans; type: in vivo; conditions: Caenorhabditis elegans, 100 μg/mL; read-out: insecticidal activity, Caenorhabditis elegans
[5] = system: Alternaria solani; test: Fungicidal activity, fungicide growth rate method, AS; type: cell-based; conditions: 50 μg/mL; for inhibition at 50 µg/mL: Alternaria solani, read-out: fungicidal activity (growth inhibition rate), AS
[6] = system: Botrytis cinerea; test: Fungicidal activity, fungicide growth rate method, BC; type: cell-based; conditions: 50 μg/mL; for inhibition at 50 µg/mL: Botrytis cinerea, read-out: fungicidal activity (growth inhibition rate), BC
[7] = system: Phytophthora infestans (Mont.) de Bary; test: microbe, parasite or virus in culture; type: cell-based; conditions: for inhibition at 50 µg/mL: Phytophthora infestans, read-out: fungicidal activity (growth inhibition rate), PI, 50 μg/mL
[8] = system: Pellicularia sasakii; test: Fungicidal activity, fungicide growth rate method, PS; type: cell-based; conditions: 50 μg/mL; for inhibition at 50 µg/mL: read-out: fungicidal activity (growth inhibition rate), PS
[9] = system: Rhizoctonia cerealis; test: Fungicidal activity, fungicide growth rate method, RC; type: cell-based; conditions: 50 μg/mL; for inhibition at 50 µg/mL: Ceratobasidium cereale, read-out: fungicidal activity (growth inhibition rate), RC
[10] = system: Sclerotinia sclerotiorum; test: Fungicidal activity, fungicide growth rate method, SS; type: cell-based; conditions: 50 μg/mL; for inhibition at 50 µg/mL: Sclerotinia sclerotiorum
[11] = system: Cercospora arachidicola; test: Fungicidal activity, fungicide growth rate method, CA; type: cell-based; conditions: 50 μg/mL; for inhibition at 50 µg/mL: Mycosphaerella arachidis, read-out: fungicidal activity (growth inhibition rate), CA
[12] = system: Physalospora piricola; test: Fungicidal activity, fungicide growth rate method, PP; type: cell-based; conditions: 50 μg/mL; for inhibition at 50 µg/mL: read-out: fungicidal activity (growth inhibition rate), PP
[13] = system: wheat Gibberella zeae; test: microbe, parasite or virus in culture; type: cell-based; conditions: for inhibition at 50 µg/mL: Fusarium graminearum, read-out: fungicidal activity (growth inhibition rate), GZ, 50 μg/mL
[14] = system: Apis mellifera ligustica Spin; conditions: for Death number after 24 h / Death number after 48 h: per replicate of 10 bees

Molecule | pest or weed control at 100 µg/mL [1] | pest or weed control at 100 µg/mL [2] | pest or weed control at 100 µg/mL [3] | pest or weed control at 100 µg/mL [4] | inhibition at 50 µg/mL [5] | inhibition at 50 µg/mL [6] | inhibition at 50 µg/mL [7] | inhibition at 50 µg/mL [8] | inhibition at 50 µg/mL [9] | inhibition at 50 µg/mL [10] | inhibition at 50 µg/mL [11] | inhibition at 50 µg/mL [12] | inhibition at 50 µg/mL [13] | other results
CC(C)(C)OO[C@@H]1CC(=O)[C@@]2(O)CC=CC[C@H]12 [Zyj06-92-2] | 20% | 10% | 10% | 20% | > 60% | 30% | 15% | 41% | > 70% | 38% |  |  |  | 
CCOC(=O)C[C@@H]1C[C@]2(O)CC(=O)O[C@@]23CC=CC[C@H]13 [Zyj06-128] |  |  |  | > 30% |  | 25% | 7% | 20% | > 70% | 0% | 27% | 8% |  | 
C=C(C)C1CC(=O)[C@@]2(O)CC=CC[C@H]12 (stereo partly drawn) [Zyj06-166] | 0% | 0% | 0% | 5% |  | 36% | 25% | 18% | 0% | 17% | > 50% | 38% | 27% | Death rate after 48 h (%) ([14]; dosage 9.93 μg a.i./bee): 0%; Death number after 24 h ([14]; dosage 9.93 μg a.i./bee): 0; Death number after 48 h ([14]; dosage 9.93 μg a.i./bee): 0; Death rate after 48 h (%) ([14]; dosage 19.7 μg a.i./bee): 10.0%; Death number after 24 h ([14]; dosage 19.7 μg a.i./bee): 0; Death number after 48 h ([14]; dosage 19.7 μg a.i./bee): 1
C=C(C)C1C[C@]2(O)C(C(=O)OCC)C(=O)O[C@@]23CC=CC[C@H]13 (stereo partly drawn) [Zyj06-167] |  |  |  | 25% |  | 13% | 0% | 24% | 59% | 9% | 26% | 0% | 46% | 
C=C(C)[C@@H]1C[C@]2(O)CC(=O)O[C@@]23CC=CC[C@H]13 [Zyj06-175] |  |  |  | 15% |  | 25% | 0% | 5% | 61% | 11% | 33% | 8% | 14% | 
C=CC[C@@H]1C[C@]2(O)CC(=O)O[C@@]23CC=CC[C@H]13 [Zyj06-186] | 0% | 0% | 0% | 15% | 7% | 49% | 4% | 6% | 41% | > 50% | 46% | 11% | 21% | 
CCOC(=O)C1C(=O)O[C@]23CC=CC[C@@H]2[C@H](OC)C[C@]13O (stereo partly drawn) [Zyj06-187] | 10% | 0% | 0% | 8% | 14% | 34% | 31% | 0% | 50% | 43% | > 50% |  | > 50% | Death rate after 48 h (%) ([14]; dosage 6.08 μg a.i./bee): 0%; Death number after 24 h ([14]; dosage 6.08 μg a.i./bee): 0; Death number after 48 h ([14]; dosage 6.08 μg a.i./bee): 0; Death rate after 48 h (%) ([14]; dosage 10.6 μg a.i./bee): 10.0%; Death number after 24 h ([14]; dosage 10.6 μg a.i./bee): 0; Death number after 48 h ([14]; dosage 10.6 μg a.i./bee): 1
CO[C@@H]1C[C@]2(O)CC(=O)O[C@@]23CC=CC[C@H]13 [Zyj06-189] | 0% | 0% | 0% | 8% | 0% | > 50% | 23% | 23% | 29% | 0% | 24% | > 50% | 13% | Death rate after 48 h (%) ([14]; dosage 9.77 μg a.i./bee): 0%; Death number after 24 h ([14]; dosage 9.77 μg a.i./bee): 0; Death number after 48 h ([14]; dosage 9.77 μg a.i./bee): 0; Death rate after 48 h (%) ([14]; dosage 16.4 μg a.i./bee): 0%; Death number after 24 h ([14]; dosage 16.4 μg a.i./bee): 0; Death number after 48 h ([14]; dosage 16.4 μg a.i./bee): 0
C=CC[C@@H]1C[C@]2(O[Si](C)(C)CC=C)CCO[C@@]23C[C@H](O[Si](C)(C)CC=C)CC[C@H]13 [Zyj07-46] | 20% | 5% | 0% | 10% | 8% | > 50% | 21% | 22% | 0% | > 50% | 14% | 21% | 3% | 
C=CC[C@@H]1C[C@]2(O)CC(O)O[C@@]23C[C@H]2O[C@H]2C[C@H]13 (stereo partly drawn) [Zyj07-64] | 20% | 10% | 5% | 8% | > 60% | 41% | 17% | > 60% | > 70% | 45% |  |  | 73% | Death rate after 48 h (%) ([14]; dosage 10.0 μg a.i./bee): 15.0%; Death number after 24 h ([14]; dosage 10.0 μg a.i./bee): 0; Death number after 48 h ([14]; dosage 10.0 μg a.i./bee): 1 and 2; Death rate after 48 h (%) ([14]; dosage 15.5 μg a.i./bee): 10.0%; Death number after 24 h ([14]; dosage 15.5 μg a.i./bee): 0 and 1; Death number after 48 h ([14]; dosage 15.5 μg a.i./bee): 0 and 2
CCOC(=O)C1C(=O)O[C@]23CC=CC[C@@H]2CC[C@]13O (stereo partly drawn) [Zyj07-95] | > 30% | 10% | 10% |  | > 60% |  | 29% | 57% | > 70% | > 50% |  |  | > 50% | Death rate after 48 h (%) ([14]; dosage 9.36 μg a.i./bee): 0%; Death number after 24 h ([14]; dosage 9.36 μg a.i./bee): 0; Death number after 48 h ([14]; dosage 9.36 μg a.i./bee): 0; Death rate after 48 h (%) ([14]; dosage 19.9 μg a.i./bee): 0%; Death number after 24 h ([14]; dosage 19.9 μg a.i./bee): 0; Death number after 48 h ([14]; dosage 19.9 μg a.i./bee): 0
C=CC[C@@H]1C[C@@]2(O)C[C@@H](CC=C)[C@H]3CC=CC[C@@]32O1 [Zyj07-98] | 0% | 0% |  | 25% | > 60% | > 50% | 17% | 27% | > 70% | > 50% |  |  | > 50% | Death rate after 48 h (%) ([14]; dosage 8.47 μg a.i./bee): 0%; Death number after 24 h ([14]; dosage 8.47 μg a.i./bee): 0; Death number after 48 h ([14]; dosage 8.47 μg a.i./bee): 0
Ryanodine [reference compound] |  |  |  |  |  |  |  |  |  |  |  |  |  | insecticidal activity, Mythimna separate (Walker) [1]: 100%; insecticidal activity, Helicoverpa armigera (Hübner) [2]: 100%; insecticidal activity, Ostrinia furnacalis [3]: 100%; fungicidal activity (growth inhibition rate), AS [5]: 25%; fungicidal activity (growth inhibition rate), BC [6]: 25%; fungicidal activity (growth inhibition rate), CA [11]: 10%; fungicidal activity (growth inhibition rate), GZ ([13]; 50 μg/mL): 20%; fungicidal activity (growth inhibition rate), PI ([7]; 50 μg/mL): 30%; fungicidal activity (growth inhibition rate), PP [12]: 25%; fungicidal activity (growth inhibition rate), PS [8]: 32%; fungicidal activity (growth inhibition rate), RC [9]: 50%; fungicidal activity (growth inhibition rate), SS [10]: 25%
